ChEMBL document CHEMBL1201862, “PubChem BioAssay data set” (2004)
Calls of active or inactive are those of the source.

How the values were obtained:
[1] = biological target: FAD-linked sulfhydryl oxidase ALR (Homo sapiens, UniProt P55789); assay: inhibitors of human ALR sulfhydryl oxidase, dose response, biochemical, H2O2 detection, luminescence, cherry-pick (AID 493248)
[2] = intracellular Trypanosoma cruzi inhibitors in host cells – cell-based, plate reader, cherry-pick samples, set 3, dose response (AID 651818); assay type: functional;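 further: compounds incubated with infected cells for about four days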
[3] = biological target: T1, Polyadenylate-binding protein 1 (Homo sapiens, UniProt P11940); assay: PABP1 MLLE–PAM2 interaction inhibitors, dose response, miRNA deadenylation inhibitor project, biochemical, fluorescence polarization, Cy5-PAM2 peptide, secondary (AID 602260); assay type: functional; details: read-out: IC50_Mean
T1 sequence (P11940 whole entry): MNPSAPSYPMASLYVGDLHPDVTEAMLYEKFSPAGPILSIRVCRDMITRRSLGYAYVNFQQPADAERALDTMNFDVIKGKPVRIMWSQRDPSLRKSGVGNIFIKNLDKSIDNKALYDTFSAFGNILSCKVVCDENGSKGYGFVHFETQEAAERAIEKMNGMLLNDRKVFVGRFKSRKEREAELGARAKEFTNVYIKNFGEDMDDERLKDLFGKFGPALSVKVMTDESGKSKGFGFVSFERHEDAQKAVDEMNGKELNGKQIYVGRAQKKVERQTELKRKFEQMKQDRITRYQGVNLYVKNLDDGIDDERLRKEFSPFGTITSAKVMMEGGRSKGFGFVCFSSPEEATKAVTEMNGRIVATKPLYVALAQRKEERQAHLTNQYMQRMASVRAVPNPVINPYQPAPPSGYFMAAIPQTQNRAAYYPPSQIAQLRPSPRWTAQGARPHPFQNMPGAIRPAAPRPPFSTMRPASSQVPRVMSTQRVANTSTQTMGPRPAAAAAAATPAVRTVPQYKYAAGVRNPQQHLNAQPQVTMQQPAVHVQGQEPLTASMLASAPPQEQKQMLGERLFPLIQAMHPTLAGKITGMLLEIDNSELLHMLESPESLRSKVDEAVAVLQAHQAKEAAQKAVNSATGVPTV

[4] = biological target: T1, Polyadenylate-binding protein 1; assay: PABP1 MLLE–PAM2 binding inhibitor potency, dose response, biochemical, fluorescence polarization, FITC-PAM2 peptide (AID 602259); assay type: functional; details: read-out: IC50_Mean
[5] = biological target: T2, RNA-binding protein pos-1 (Caenorhabditis elegans, UniProt G5EF15); assay: inhibitors of POS-1/mex-3 RNA binding, dose response, biochemical, fluorescence polarization (AID 1964);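 further: purified POS-1 fused to maltose binding protein made in E. coli; potency of compounds blocking POS-1 binding to fluorescent RNA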
T2 sequence (G5EF15 whole entry): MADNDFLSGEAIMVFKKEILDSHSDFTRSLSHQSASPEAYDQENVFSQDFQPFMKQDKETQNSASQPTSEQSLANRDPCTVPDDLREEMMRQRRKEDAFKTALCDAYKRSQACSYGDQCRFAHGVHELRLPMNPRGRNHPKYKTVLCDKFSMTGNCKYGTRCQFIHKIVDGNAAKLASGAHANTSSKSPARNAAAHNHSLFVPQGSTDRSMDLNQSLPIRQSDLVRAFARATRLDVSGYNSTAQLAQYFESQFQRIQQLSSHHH

[6] = biological target: T3, Zinc finger protein mex-5 (Caenorhabditis elegans, UniProt Q9XUB2); assay: MEX-5/TCR-2 RNA interaction inhibitors, dose response, biochemical, C. elegans, fluorescence polarization (AID 1960)
T3 sequence (Q9XUB2 whole entry): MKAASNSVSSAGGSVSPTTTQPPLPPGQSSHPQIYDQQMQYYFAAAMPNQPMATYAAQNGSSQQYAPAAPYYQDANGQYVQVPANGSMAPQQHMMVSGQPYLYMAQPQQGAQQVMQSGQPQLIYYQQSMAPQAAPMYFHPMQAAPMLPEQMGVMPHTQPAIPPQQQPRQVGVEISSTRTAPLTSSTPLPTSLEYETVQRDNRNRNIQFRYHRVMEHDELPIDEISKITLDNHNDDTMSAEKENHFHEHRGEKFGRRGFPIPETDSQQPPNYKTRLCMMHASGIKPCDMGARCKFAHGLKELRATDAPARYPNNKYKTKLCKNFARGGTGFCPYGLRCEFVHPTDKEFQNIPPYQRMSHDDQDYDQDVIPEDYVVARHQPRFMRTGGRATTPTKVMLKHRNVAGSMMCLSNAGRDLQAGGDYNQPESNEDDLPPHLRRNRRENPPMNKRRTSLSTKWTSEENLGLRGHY

[7] = HEp-2 cell cytotoxicity, dose response, cytotoxicity control for RSV inhibitor project, HTS (AID 2410); assay type: functional; details: human respiratory syncytial virus
Genome polyprotein = Genome polyprotein (dengue virus type 2, UniProt P29990); assay: Dengue-2 NS5 methyltransferase inhibitors, primary screen, biochemical, confirmation dose response (AID 588689); assay type: functional
Sequence of Genome polyprotein (P29990 2492-3391 limits assumed): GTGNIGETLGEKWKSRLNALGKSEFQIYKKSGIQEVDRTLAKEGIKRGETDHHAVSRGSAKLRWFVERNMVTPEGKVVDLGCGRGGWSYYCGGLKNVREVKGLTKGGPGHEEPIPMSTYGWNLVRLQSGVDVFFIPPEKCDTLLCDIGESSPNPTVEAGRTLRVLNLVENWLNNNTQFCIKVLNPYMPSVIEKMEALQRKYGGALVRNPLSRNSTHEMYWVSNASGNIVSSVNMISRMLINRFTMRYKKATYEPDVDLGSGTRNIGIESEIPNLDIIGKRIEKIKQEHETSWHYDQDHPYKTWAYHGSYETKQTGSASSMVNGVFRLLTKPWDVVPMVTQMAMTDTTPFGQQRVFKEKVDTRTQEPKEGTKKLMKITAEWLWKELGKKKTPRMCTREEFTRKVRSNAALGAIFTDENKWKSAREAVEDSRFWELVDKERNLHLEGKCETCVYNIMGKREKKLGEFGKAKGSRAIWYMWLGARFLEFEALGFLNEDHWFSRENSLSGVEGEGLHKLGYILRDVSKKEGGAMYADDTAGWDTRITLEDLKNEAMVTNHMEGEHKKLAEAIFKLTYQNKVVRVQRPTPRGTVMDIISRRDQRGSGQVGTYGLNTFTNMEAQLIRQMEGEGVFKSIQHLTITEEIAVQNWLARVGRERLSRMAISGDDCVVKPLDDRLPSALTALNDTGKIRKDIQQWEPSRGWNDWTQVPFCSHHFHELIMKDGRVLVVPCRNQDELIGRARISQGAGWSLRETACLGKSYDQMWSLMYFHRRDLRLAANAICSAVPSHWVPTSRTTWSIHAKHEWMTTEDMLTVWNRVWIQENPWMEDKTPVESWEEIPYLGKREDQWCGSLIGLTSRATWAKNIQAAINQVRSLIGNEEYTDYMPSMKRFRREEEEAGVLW

[8] = biological target: T4, Histone-lysine N-methyltransferase NSD2 (Homo sapiens, UniProt O96028); assay type: biochemical
T4 sequence (O96028 whole entry): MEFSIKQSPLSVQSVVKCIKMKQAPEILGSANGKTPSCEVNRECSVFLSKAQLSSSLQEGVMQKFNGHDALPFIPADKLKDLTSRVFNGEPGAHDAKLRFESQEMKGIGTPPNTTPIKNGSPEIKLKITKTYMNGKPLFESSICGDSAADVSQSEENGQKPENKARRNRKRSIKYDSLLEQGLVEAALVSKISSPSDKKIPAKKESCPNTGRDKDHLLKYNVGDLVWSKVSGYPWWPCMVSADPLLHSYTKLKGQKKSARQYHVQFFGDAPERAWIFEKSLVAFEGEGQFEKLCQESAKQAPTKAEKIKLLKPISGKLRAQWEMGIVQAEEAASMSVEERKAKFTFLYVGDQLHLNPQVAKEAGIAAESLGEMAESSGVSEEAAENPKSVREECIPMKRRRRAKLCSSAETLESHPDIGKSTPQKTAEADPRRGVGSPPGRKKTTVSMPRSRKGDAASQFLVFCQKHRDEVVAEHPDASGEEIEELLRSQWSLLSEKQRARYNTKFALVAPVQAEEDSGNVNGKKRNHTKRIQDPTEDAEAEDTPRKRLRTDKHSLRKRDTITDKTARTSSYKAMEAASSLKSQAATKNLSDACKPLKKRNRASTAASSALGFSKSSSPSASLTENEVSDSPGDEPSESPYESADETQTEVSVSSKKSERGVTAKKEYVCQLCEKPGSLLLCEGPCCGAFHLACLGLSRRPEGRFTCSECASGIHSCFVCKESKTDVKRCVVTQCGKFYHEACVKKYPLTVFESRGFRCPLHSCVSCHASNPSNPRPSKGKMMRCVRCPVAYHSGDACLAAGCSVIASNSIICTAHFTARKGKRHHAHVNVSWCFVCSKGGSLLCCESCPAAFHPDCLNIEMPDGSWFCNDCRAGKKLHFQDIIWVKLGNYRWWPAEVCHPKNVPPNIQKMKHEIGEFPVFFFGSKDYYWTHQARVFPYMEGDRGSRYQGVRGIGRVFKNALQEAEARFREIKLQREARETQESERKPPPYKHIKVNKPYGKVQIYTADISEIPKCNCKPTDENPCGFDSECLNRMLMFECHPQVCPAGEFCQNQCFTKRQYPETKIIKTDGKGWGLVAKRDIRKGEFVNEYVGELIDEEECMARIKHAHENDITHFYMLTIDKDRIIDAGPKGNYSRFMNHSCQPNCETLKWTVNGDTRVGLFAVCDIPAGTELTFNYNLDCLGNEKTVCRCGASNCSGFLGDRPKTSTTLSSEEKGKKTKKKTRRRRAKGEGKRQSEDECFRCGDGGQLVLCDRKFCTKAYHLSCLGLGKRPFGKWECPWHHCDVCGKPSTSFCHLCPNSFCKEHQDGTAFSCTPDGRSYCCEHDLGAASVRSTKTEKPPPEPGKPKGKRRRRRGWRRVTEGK

[9] = biological target: Luciferin 4-monooxygenase (Photinus pyralis, UniProt P08659); assay: firefly luciferase enzyme inhibitors, dose response, biochemical, luminescence (AID 1891)
Sequence of Luciferin 4-monooxygenase (P08659 whole entry): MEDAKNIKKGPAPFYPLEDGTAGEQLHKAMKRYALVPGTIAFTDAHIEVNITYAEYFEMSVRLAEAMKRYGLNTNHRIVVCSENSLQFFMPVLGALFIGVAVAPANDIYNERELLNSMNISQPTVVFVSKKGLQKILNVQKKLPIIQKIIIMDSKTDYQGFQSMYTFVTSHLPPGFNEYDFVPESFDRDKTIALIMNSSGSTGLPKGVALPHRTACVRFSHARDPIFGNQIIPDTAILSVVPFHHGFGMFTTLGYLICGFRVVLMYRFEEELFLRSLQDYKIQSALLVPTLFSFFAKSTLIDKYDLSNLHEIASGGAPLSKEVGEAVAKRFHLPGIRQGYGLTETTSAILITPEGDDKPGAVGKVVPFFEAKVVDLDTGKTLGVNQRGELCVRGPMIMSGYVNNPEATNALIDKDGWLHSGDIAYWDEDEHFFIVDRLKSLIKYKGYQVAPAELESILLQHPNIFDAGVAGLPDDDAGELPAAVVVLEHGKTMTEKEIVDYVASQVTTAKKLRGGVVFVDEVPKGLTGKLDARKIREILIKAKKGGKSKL

Cytochrome P450 3A4 = Cytochrome P450 3A4 (Homo sapiens, UniProt P08684);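 further: CYP3A4 tested as one member of a cytochrome P450 panel screen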
Sequence of Cytochrome P450 3A4 (P08684 whole entry): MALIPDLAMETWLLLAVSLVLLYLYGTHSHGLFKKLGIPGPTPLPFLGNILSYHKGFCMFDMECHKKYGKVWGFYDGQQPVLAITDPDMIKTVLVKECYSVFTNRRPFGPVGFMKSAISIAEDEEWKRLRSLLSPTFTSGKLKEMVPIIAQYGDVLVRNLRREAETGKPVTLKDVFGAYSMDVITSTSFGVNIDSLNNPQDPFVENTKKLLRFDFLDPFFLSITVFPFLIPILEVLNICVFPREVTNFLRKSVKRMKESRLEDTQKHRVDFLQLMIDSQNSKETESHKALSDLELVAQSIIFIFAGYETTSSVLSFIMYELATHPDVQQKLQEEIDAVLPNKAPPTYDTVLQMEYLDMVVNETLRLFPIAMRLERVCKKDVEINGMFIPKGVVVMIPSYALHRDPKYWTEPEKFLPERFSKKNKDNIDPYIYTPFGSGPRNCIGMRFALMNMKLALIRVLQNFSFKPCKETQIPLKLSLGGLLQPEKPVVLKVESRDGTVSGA

Cytochrome P450 2C9 = Cytochrome P450 2C9 (Homo sapiens, UniProt P11712)
Sequence of Cytochrome P450 2C9 (P11712 whole entry): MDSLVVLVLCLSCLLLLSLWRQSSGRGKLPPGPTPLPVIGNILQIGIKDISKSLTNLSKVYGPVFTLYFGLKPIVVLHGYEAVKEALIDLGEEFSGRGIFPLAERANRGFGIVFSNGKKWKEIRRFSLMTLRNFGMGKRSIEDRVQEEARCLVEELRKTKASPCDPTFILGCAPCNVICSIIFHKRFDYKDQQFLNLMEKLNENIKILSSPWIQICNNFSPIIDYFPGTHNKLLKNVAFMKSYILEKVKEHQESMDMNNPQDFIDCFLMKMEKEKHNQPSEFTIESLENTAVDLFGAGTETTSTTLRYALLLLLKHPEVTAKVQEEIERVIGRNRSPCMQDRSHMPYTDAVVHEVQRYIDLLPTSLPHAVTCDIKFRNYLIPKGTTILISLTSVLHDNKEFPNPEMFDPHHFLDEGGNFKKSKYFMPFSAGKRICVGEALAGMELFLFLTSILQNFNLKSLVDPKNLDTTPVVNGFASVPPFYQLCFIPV

Sequence of FAD-linked sulfhydryl oxidase ALR (P55789 whole entry): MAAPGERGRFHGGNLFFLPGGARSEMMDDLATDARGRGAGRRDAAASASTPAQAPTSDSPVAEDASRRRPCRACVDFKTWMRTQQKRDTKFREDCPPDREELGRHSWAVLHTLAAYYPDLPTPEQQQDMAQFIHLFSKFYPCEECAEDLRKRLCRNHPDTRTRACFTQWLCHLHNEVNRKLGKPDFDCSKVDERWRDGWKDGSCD

Row | IC50 [3] | IC50 [4] | SMILES | AC50 [2] | further results
1 |  |  | CC1CN(C2CCCCC2)c2nc3c(c(=O)[nH]c(=O)n3C)n2C1 (stereo not given) |  | AC50 [1]: 1.81 µM (active)
2 |  |  | C[C@H]1CN([C@@H](C)CO)C(=O)Cc2cc(NS(=O)(=O)c3ccc(F)cc3)ccc2O[C@H]1CN(C)Cc1ccc(C(=O)Nc2ccccc2N)cc1 | 2.64 µM (active) | 
3 |  |  | COc1ccc(CN(C)C[C@H]2Oc3ccc(NC(=O)C4CCCCC4)cc3CC(=O)N([C@@H](C)CO)C[C@@H]2C)cc1 | 1.2 µM (active) | 
4 |  |  | C[C@@H]1CN([C@@H](C)CO)C(=O)Cc2cc(NC(=O)Nc3cccc4ccccc34)ccc2O[C@@H]1CN(C)Cc1ccc(-c2ccccc2)cc1 | 3.22 µM (active) | 
5 | > 66 µM (inactive) | > 66 µM (inactive) | CCC(c1nnnn1Cc1ccc(F)cc1)N(CCCO)Cc1cc2cc3c(cc2nc1O)OCO3 (stereo not given) |  | 
6 | 33.3 µM (inactive) | 42.7 µM (inactive) | O=C(NN=Cc1sc(=O)[n-]c1-[n+]1ccc(-c2ccncc2)cc1)c1ccccc1O |  | EC50 [5]: 11.9 µM (active); EC50 [6]: 10.7 µM (active)
7 |  |  | CSCC[C@H](NC(=O)N1CCn2c1nc1ccccc12)C(=O)N1CCCCC1 |  | AC50 [1]: 4.31 µM (active)
8 | > 66 µM (inactive) | > 66 µM (inactive) | CCOC(=O)CNC(=O)CSc1nc(-c2cccc(C)c2)ns1 |  | 
9 |  |  | O=C1Nn2c(nc3c(c2=O)CCCC3)/C1=N/Nc1cccc(C(F)(F)F)c1 |  | CC50 [7]: 25.1 µM (active); IC50 (Genome polyprotein): 28.7 µM (active); AC50 [8]: > 20 µM (inactive)
10 |  |  | COc1ccc(S(=O)(=O)Nc2cccc3c2O[C@@H](CN(C)Cc2ccc(C(=O)Nc4ccccc4N)cc2)[C@@H](C)CN([C@H](C)CO)C3=O)cc1 | 4.14 µM (active) | 
11 | > 66 µM (inactive) | > 66 µM (inactive) | O=c1[nH]c2ccc(NC(=S)Nc3ccccc3Cl)cc2[nH]1 |  | EC50 [9]: > 112 µM (not active)
12 | > 66 µM (inactive) | > 66 µM (inactive) | O=C(NC(=S)Nc1ccc(C(=O)N2CCOCC2)cc1)c1ccc([N+](=O)[O-])cc1 |  | AC50 (Cytochrome P450 3A4): 1.41 µM (inconclusive); AC50 (Cytochrome P450 2C9): 0.891 µM (inconclusive)
13 |  |  | C[C@@H]1CN([C@@H](C)CO)C(=O)Cc2cc(NC(=O)Nc3ccc4c(c3)OCO4)ccc2O[C@@H]1CN(C)Cc1ccc(Oc2ccccc2)cc1 | 2.77 µM (active) | 
